The source of these data is US6458357B1, “Retro-inverso neurotrophic and analgesic peptides” (Myelos Corporation, priority 1997, dated 2002).

“Also recorded” adds a separate entry of the source. Where a SMILES comes first, the peptide text is derived from it. Where no end group is shown, it is not given here. [ ]: non-standard residue; d: D form.

Data set [1] has as its system NS20Y neuroblastoma cells. In words: NS20Y neuroblastoma neurite outgrowth assay. The format is cell-based. The settings on record: for neurite outgrowth (neuritogenic activity): 0.5-8 ng/ml peptide, 24 hours, DMEM 0.5% FCS. As for the experimental part: NS20Y neuroblastoma cells were grown in DMEM containing 10% fetal calf serum (FCS). Cells were removed with trypsin and plated in 30 mm petri dishes onto glass coverslips. After 20-24 hours, the medium was replaced with 2 ml DMEM containing 0.5% FCS plus 0, 0.5, 1, 2, 4 or 8 ng/ml effector peptides. Cells were cultured for an additional 24 hours, washed with PBS and fixed with Bouin's solution (saturated aqueous picric acid/formalin/acetic acid 15:5:1) for 30 minutes. Fixative was removed with PBS and neurite outgrowth was scored under a phase contrast microscope. […] At least 200 cells were scored in different portions of each dish to determine the percentage of neurite bearing cells and assays were performed in duplicate.
Increased neurite outgrowth was evident using as little as 0.5 ng/ml peptide.

In data set [2] the test system is NS20Y neuroblastoma cells. The data set is described as follows: Cell death assay, trypan blue staining of NS20Y cells in low serum. The class given is cell-based. The conditions noted are these: for reduction of the number of trypan blue-positive (dead) cells: NS20Y cells, 8 ng/ml peptide, 2 days in 0.5% fetal bovine serum; for prevention of cell death: neuroblastoma cells in culture. On the procedure: NS20Y cells were plated as described in Example 1 and grown on glass coverslips in 0.5% fetal bovine serum for 2 days in the presence or absence of 8 ng/ml effector peptides. Media was removed and 0.2% trypan blue in PBS was added to each well. Blue-staining dead cells were scored as a percentage of the total on an inverted microscope, counting 400 cells in four areas of each well. The average error of duplicates was ±5%.

Data set [3] in a line: Integrity (intactness) of peptide D4 in organs by HPLC 60 minutes after injection. The class given is in vivo, rat. As for the experimental part:
In another study, an aliquot of brain, liver, lung and kidney was taken 60 minutes after injection for HPLC analyses (Vydac C4 column) to determine the integrity (intactness) of the peptide in brain, blood and kidney. Peptide D4 was 95% intact in these organs, indicating the in vivo stability of this peptide after 60 minutes. The peak at 16 min. is intact D4; a breakdown product peak is evident at 4 min.

The nature of data set [4]: Localization of 125I-labelled peptide D4 in organs after intramuscular injection.
Procedure: After 20 min., the rat was anesthetized, perfused with PBS and the organs removed and counted in a gamma counter.
In data set [5] the test system is neurite outgrowth. The conditions noted are these: system not specified; cited from earlier work.
The conditions of data set [6]: in vivo; cited from earlier work.
In data set [7] the test system is choline acetyltransferase activity. The conditions noted are these: neuroblastoma cells in vitro; cited from earlier work.
In data set [8] the test system is neuroblastoma cells. The settings on record: cited from earlier work.
Data set [9] concerns neuroblastoma cells. The settings on record: neuroblastoma cells in vitro; cited from earlier work.
Data set [10] relates to mouse cerebellar explants. The conditions noted are these: cited from earlier work.
Data set [11] relates to newborn mouse cerebellar explants. The data set is described as follows: Ex vivo myelination assay in newborn mouse cerebellar explants. The settings on record: added on second day, observed for 22 days in culture; saposin C positive control 1-10 μg/ml. The class given is cell-based. On the procedure:
Newborn mouse cerebellar explants are prepared according to Satomi (Zool. Sci. 9:127-137, 1992). Neurite outgrowth and myelination are observed for 22 days in culture, during the period when the newborn mouse cerebellum normally undergoes neuronal differentiation and myelination begins. D2, D3, D4, D5 or another peptide including SEQ ID NO: 12 is added on the second day after preparation of the explants (three control and three treated explants) and outgrowth of neurites and myelination are assessed under a bright field microscope with a video camera. Saposin C is used as a positive control at a concentration of between about 1 and 10 μg/ml.

In the case of “TX14(A): TXLIDNNATEEILY, X=D-alanine; SEQ ID NO: 4; modified 15-mer of human saposin C (T[dA]LIDNNATEEILY) [TX…, X=D-alanine; modified 15-mer of human saposin C, reference compound]”, in [1], the “neurite outgrowth (neuritogenic activity)” value is “exhibited neuritogenic activity; also recorded: induced neurite outgrowth”. Further, in data set [2], the “reduction of the number of trypan blue-positive (dead) cells” value is reported as “about 50%” and the “prevention of cell death” value is “prevented cell death in neuroblastoma cells in culture to the same extent”.

In the case of `CC(C)C[C@@H](NC(=O)[C@@H](CC(C)C)NC(=O)[C@@H](CC(=O)O)NC(=O)[C@@H](CC(N)=O)NC(=O)[C@@H](CC(N)=O)NC(=O)[C@@H](C)NC(=O)[C@H](NC(=O)[C@@H](CCC(=O)O)NC(=O)[C@@H](CCC(=O)O)NC(=O)[C@@H](CC(C)C)NC(=O)[C@@H](CC(C)C)NC(=O)[C@H](N)Cc1ccc(O)cc1)[C@H](C)O)C(=O)O` [peptide D4] (H-[dY][dL][dL][dE][dE][dT][dA][dN][dN][dD][dL][dL]-OH; N-terminus and C-terminus assumed), the in vivo stability result in [3] (60 minutes after injection) was “stable in vivo”. The “crossing of the blood brain barrier” value in [3] (after intramuscular injection, rat) is “crosses the blood brain barrier in amounts sufficient to exert a therapeutic effect”. Moreover, the “presence of peptide in the brain” value in [4] (after intramuscular injection into a rat) was “significant amounts”. In addition, in [4] (brain, 20 min after 200 μg/kg intramuscular, rat), the “concentration in brain relative to required neurotrophic dose for neural cells determined in vitro” value is reported as “approximately 20 times”.

“18-mer: YKEVTKLIDNNKTEKEIL; SEQ ID NO: 2; within the active 22-mer of saposin C, V replaced by Y (Homo Sapien)”: the neurite outgrowth result in [5] is reported as “promotes neurite outgrowth”. Also, in [6], the “crossing of the blood-brain barrier” value is reported as “crosses the blood brain barrier; also recorded: able to cross the blood-brain barrier”.

As to “rat 14-mer: rat 14-mer derived from the saposin C active sequence, SELIINNATEELLY; SEQ ID NO: 6 (Homo Sapien) [reference compound]”, the “neurite outgrowth (neuritogenic activity)” value in data set [1] was “induced neurite outgrowth”.

On to “22-mer: CEFLVKEVTKLIDNNKTEKEIL; SEQ ID NO: 1; amino acids 8-29 of human saposin C (Homo Sapien)”, for which, in data set [7], the choline acetyltransferase activity result was “stimulates choline acetyltransferase activity”. The neurite outgrowth entry in [8] and in [10] was “stimulates neurite outgrowth” throughout. In addition, in [9], the “prevention of cell death” value is “prevented cell death”.

Take “peptide D2: YLIEETANNDILAT, all D-amino acids; SEQ ID NO: 5; retro-inverted TX14(A) ([dY][dL][dI][dE][dE][dT][dA][dN][dN][dD][dI][dL][dA][dT]; also: retro-inverted)”: in data set [1], the “neurite outgrowth activity compared with TX14(A)” value is “slightly more active that TX14(A); also recorded: slightly more effective than TX14(A)” and the “neurite outgrowth (neuritogenic activity)” value is given as “exhibited neuritogenic activity; also recorded: induced neurite outgrowth”. Further, in data set [2], the “reduction of the number of trypan blue-positive (dead) cells” value is recorded as “about 50%” and the “prevention of cell death” value is given as “prevented cell death in neuroblastoma cells in culture to the same extent”. Also, the stimulation of myelination entry in [11] is listed as “to a similar extent as with saposin C”.

In the case of “D3: retro-inverso peptide YLEETANNDLLAT; SEQ ID NO: 11 ([dY][dL][dE][dE][dT][dA][dN][dN][dD][dL][dL][dA][dT]; also: retro-inverso)”, the “neurite outgrowth (neuritogenic activity)” value in data set [1] is on record as “promoted neurite outgrowth in vitro”. Besides, the stimulation of myelination result in [11] was “to a similar extent as with saposin C”.

B1: saposin C: small heat-stable glycoprotein generated by proteolytic processing of prosaposin (protein, UniProt P07602 311-390, looked up)
Saposin-C: SDVYCEVCEFLVKEVTKLIDNNKTEKEILDAFDKMCSKLPKSLSEECQEVVDTYGSSILSILLEEVSPELVCSMLHLCSG
modifications: Saposin-C
For the molecule B1, in data set [5], the myelination result is listed as “promote increased myelination” and the neurite outgrowth entry is recorded as “stimulate neurite outgrowth”.
